In article PMC3871529, “At a Supra-Physiological Concentration, Human Sexual Hormones Act as Quorum-Sensing Inhibitors” (PLoS ONE, 2013):

Legend:
RhlR = biological target: T1, RhlR (Pseudomonas aeruginosa, UniProt P54292); test: E. coli bioindicator expressing RhlR (pAL101, rhlI::luxCDABE luminescence); format: cell-based; settings: C4-HSL 10 µM; QSIs at 0.1 mg/ml, naringenin and naringin at 0.5 mg/ml
T1 construct: expressed in transfected cells; host or cells: Escherichia coli JLD271 carrying pAL101 (pSB401-derivative, rhlR+ rhlI::luxCDABE)
T1 sequence (P54292 whole entry): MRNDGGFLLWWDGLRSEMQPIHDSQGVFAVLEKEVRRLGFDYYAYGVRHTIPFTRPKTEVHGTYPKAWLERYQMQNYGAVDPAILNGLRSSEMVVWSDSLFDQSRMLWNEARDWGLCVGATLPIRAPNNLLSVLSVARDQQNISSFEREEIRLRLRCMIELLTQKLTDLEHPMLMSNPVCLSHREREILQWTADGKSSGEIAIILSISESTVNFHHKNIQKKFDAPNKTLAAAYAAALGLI
Protocol: (§1) We determined whether the AHL-binding transcriptional factors LasR and RhlR were impaired in their capacity to activate expression of the QS-regulated genes in the presence of various QSIs. This was achieved by using two E. coli bioindicator strains expressing either LasR or RhlR proteins and harboring an appropriate reporter lux operon for measuring their transcriptional activity in the presence of OC12-HSL at 100 µM and C4-HSL at 10 µM, respectively. Adding C4-HSL to the pAL101-bioindicator or OC12-HSL to the pAL105-bioindicator induced the expression of the reporter lux operon and the consequent production of luminescence. In contrast, only background levels of luminescence were detected in control strains harboring the plasmids pAL102 or pAL106, which lacks the rhlR or lasR gene, respectively.
(§2) Figure 7 QSIs modulated activity of the AHL-sensors in P. aeruginosa. Luminescence of the reporting operon lux, expressed in relative light units (RLU/OD600), was measured in E. coli bioindicator strains harboring the LasR (A) and RhlR (B) AHL-sensing systems of P. aeruginosa in the presence of […]. The QSIs estradiol, estrone, estriol and hordenine were added at 0.1 mg/ml, while naringenin and naringin, added at 0.5 mg/ml, were used as QSI-reference and non-QSI reference, respectively. Each test (n = 6) was compared with the DMSO-condition using Student's t test. Asterisks indicate statistically different data (p value of ≤0.01).
(§3) Escherichia coli JLD271 biosensor strains harboring LasR- and RhlR-based plasmids pAL105 and pAL101 and control plasmids pAL106 (LasR^-) and pAL102 (RhlR^−) (Table 1) were prepared according to Vandeputte et al.. Briefly, these strains were grown in LB medium supplemented with tetracycline (10 µg/ml) and chloramphenicol (25 µg/ml) for 24 h. Then 50-µl portions of the cultures were subcultured in 1 ml of LB medium (the starting OD600 ranged between 0.02 and 0.025 corresponding to 5.10^6 CFU) supplemented with 10 µl of DMSO (1% [vol/vol] final), 10 µl of naringenin or naringin dissolved in DMSO (2 mM, final concentration), or 10 µl of the molecule to be tested. To induce the expression of the lux operon, 0, 1, 10 or […] of C4-HSL was added to pAL101 and pAL102, while OC12-HSL was added to pAL105 and pAL106. After incubation for 2 h at 37°C with agitation (175 rpm), 200 µl of culture was transferred to 96-well OptiPlate-96 F plates from Perkin-Elmer, and the luminescence of each sample was measured by using a TopCount NXT device from Perkin-Elmer. The LasR(pAL106) and RhlR(pAL102) biosensors were used for background subtraction, and the OD600 values were measured to account for the differences in cell density. All experiments were performed in six replicates. The statistical significance of each test was evaluated by conducting Student's t tests using the GraphPad Prism software, and p values ≤0.05 were considered significant. Naringenin (4′,5,7-trihydroxyflavanone), naringin (4′,5,7-trihydroxyflavanone 7-rhamnoglucoside), the AHLs OC12-HSL and C4-HSL were purchased from Sigma-Aldrich and dissolved freshly in 100% DMSO before use. Tested QSIs were dissolved in 100% DMSO before use.

[1] = test system: QS-regulated Ti-plasmid transfer in A. tumefaciens; test: QS-regulated Ti-plasmid transfer (conjugation) assay; format: cell-based, Agrobacterium tumefaciens; settings: QSI at 0.1 mg/ml, OC8-HSL 500 pM, 72 h at 24°C
Protocol: Figure 4 In vitro Ti plasmid transfer frequency in Agrobacterium. The Ti plasmid transfer frequencies were measured in the presence of QSI (A) and the four 1248-diastereoisomeres (B) at 0.1 mg/ml. Histograms represent the cell density of transconjugants (CFU/ml), while black diamonds and squares, those of the donor and recipient strains, respectively. Measurements were performed in quadruplicate and the experiment was repeated twice. The cell densities of transconjugants in the presence of QSI were compared to that of the control in the presence of DMSO with a Mann and Whitney test (α = 0.05). Statistically different values are noted by asterisks.
In A. tumefaciens, the transfer of the Ti-plasmid from a donor cell to a recipient one is controlled by QS. QSI were evaluated for their capacity to reduce plasmid transfer frequency in Agrobacterium. In the plasmid transfer assay, two modified Agrobacterium strains were used: a Ti-plasmid donor, which requires exogenous AHL to transfer a kanamycin-resistant (Km^r) Ti-plasmid, and a rifampicin-resistant (Rif^r) recipient strain, which is free of Ti-plasmid. Overnight cultures of the donor and recipient strains were mixed with 500 pM of oxo-octanoylhomoserine lactone (OC8-HSL) and 0.1 mg/ml of QSI in LBm medium. Each combination was repeated 4 times in microwell plates.

LasR = biological target: T2, LasR (Pseudomonas aeruginosa, UniProt P25084); test: E. coli bioindicator expressing LasR (pAL105, lasI::luxCDABE luminescence); format: cell-based; settings: OC12-HSL 100 µM; QSIs at 0.1 mg/ml, naringenin and naringin at 0.5 mg/ml
T2 construct: expressed in transfected cells; host or cells: Escherichia coli JLD271 carrying pAL105 (pSB401-derivative, lasR+ lasI::luxCDABE)
T2 sequence (P25084 whole entry): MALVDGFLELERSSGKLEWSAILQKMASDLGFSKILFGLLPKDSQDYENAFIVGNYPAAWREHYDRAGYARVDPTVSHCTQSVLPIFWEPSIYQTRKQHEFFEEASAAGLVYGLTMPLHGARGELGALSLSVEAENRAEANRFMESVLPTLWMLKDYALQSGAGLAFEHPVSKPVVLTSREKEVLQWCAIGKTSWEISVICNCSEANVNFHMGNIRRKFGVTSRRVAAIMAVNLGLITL
Protocol: as §1, §2, §3

3-Hydroxy-13-methyl-6,7,8,9,11,12,13,14,15,17-decahydro-cyclopenta[a] phenanthren-16-one [Compound 729, reference compound]
effect on RhlR functionality (lux luminescence) (RhlR): significant impact
effect on Ti plasmid transfer frequency (words) [1]: significantly reduce the plasmid transfer frequency by one order of magnitude
effect on Ti plasmid transfer frequency (words) ([1]; listed as estrone): decreased the frequency
effect on LasR functionality (lux luminescence) (LasR): significant impact

CN(C)CCc1ccc(O)cc1 [Compound 3499, hordenine]
effect on RhlR functionality (lux luminescence) (RhlR): significant impact
effect on Ti plasmid transfer frequency (words) [1]: significantly reduce the plasmid transfer frequency by one order of magnitude
effect on Ti plasmid transfer frequency (words) ([1]; listed as hordenine): decreased the frequency
effect on LasR functionality (lux luminescence) (LasR): significant impact

C[C@]12CC[C@@H]3c4ccc(O)cc4CC[C@H]3[C@@H]1C[C@@H](O)[C@@H]2O [Estriol, estriol]
effect on RhlR functionality (lux luminescence) (RhlR): significant impact
effect on Ti plasmid transfer frequency (words) [1]: significantly reduce the plasmid transfer frequency by one order of magnitude
effect on LasR functionality (lux luminescence) (LasR): significant impact
